From ChEMBL document CHEMBL1141739, “Donnaienin, a New Acetogenin Bearing a Hydroxylated Tetrahydrofuran Ring” (J Nat Prod, 1998)
Values after ≈ are worked out from the molar mass of the structure shown.

Key:
Format in all cases: functional, cell-based
[1] = system: KB; test: Cytotoxicity against human KB cells after 5 days by MTT method; conditions: 120 h
[2] = system: HCT-8; test: Cytotoxicity against human HCT8 cells after 5 days by MTT method; conditions: HCT-8, 120 h
[3] = Cytotoxicity against human Bel cells after 5 days by MTT method; conditions: 120 h

CCCCCCCCCCCCCC[C@H](O)[C@@H]1C[C@@H](O)[C@@H]([C@@H](O)CC[C@@H](O)CCCCC[C@@H](O)CC2=C[C@H](C)OC2=O)O1 [DONNAIENIN]
IC50 [1]: > 10 µg/mL
IC50 [2]: > 10 µg/mL
IC50 [3]: 6.7 µg/mL (≈ 10.9 µM)
